Source: the SangsterLogP compilation

Point of comparison: `O=C1c2c(O)cccc2C(Sc2ccccc2)c2cccc(O)c21`, logP 4.54. Against it:
- O=C(O)CCSC1c2cccc(O)c2C(=O)c2c(O)cccc21 — lower, 3
- COC(=O)CSC1c2cccc(O)c2C(=O)c2c(O)cccc21 — lower, 3.53
- O=C1c2c(O)cccc2C(SCCCS)c2cccc(O)c21 — lower, 4.33
- COc1ccccc1SC1c2cccc(O)c2C(=O)c2c(O)cccc21 — within 0.2 log units, 4.42
- CCOC(=O)CCSC1c2cccc(O)c2C(=O)c2c(O)cccc21 — within 0.2 log units, 4.59
- CCCCOC(=O)CSC1c2cccc(O)c2C(=O)c2c(O)cccc21 — within 0.2 log units, 4.41
- O=C1c2c(O)cccc2C(Sc2ccccc2O)c2cccc(O)c21 — lower, 3.92
- O=C1c2c(O)cccc2C(SCCCc2ccccc2)c2cccc(O)c21 — higher, 4.78
- COc1ccc(SC2c3cccc(O)c3C(=O)c3c(O)cccc32)cc1 — within 0.2 log units, 4.51
- CC(SC1c2cccc(O)c2C(=O)c2c(O)cccc21)C(=O)O (stereo not given) — lower, 2.77
- O=C1c2c(O)cccc2C(SCC(O)CO)c2cccc(O)c21 (stereo not given) — lower, 2.73
- O=C1c2c(O)cccc2C(SCCc2ccccc2)c2cccc(O)c21 — higher, 4.97
- Nc1ccc(SC2c3cccc(O)c3C(=O)c3c(O)cccc32)cc1 — lower, 3.65
- COc1cccc(SC2c3cccc(O)c3C(=O)c3c(O)cccc32)c1 — within 0.2 log units, 4.5
- O=C1c2c(O)cccc2C(SCCO)c2cccc(O)c21 — lower, 3.16
- CCOC(=O)CSC1c2cccc(O)c2C(=O)c2c(O)cccc21 — within 0.2 log units, 4.45
- O=C1c2c(O)cccc2C(Sc2ccc(O)cc2)c2cccc(O)c21 — lower, 3.69
- O=C1c2c(O)cccc2C(SCc2ccccc2)c2cccc(O)c21 — higher, 4.87
- CCCCOC(=O)CCSC1c2cccc(O)c2C(=O)c2c(O)cccc21 — within 0.2 log units, 4.55
- COc1ccc(CSC2c3cccc(O)c3C(=O)c3c(O)cccc32)cc1 — higher, 4.83
- CCCSC1c2cccc(O)c2C(=O)c2c(O)cccc21 — within 0.2 log units, 4.57
- Nc1ccccc1SC1c2cccc(O)c2C(=O)c2c(O)cccc21 — lower, 4.05
- O=C(O)CSC1c2cccc(O)c2C(=O)c2c(O)cccc21 — lower, 2.35
- CCSC1c2cccc(O)c2C(=O)c2c(O)cccc21 — lower, 2.97
